Peptide text beside a SMILES is read from it.
Row | logP | Compound
1 | -2.64 | C[n+]1cccc2ccccc21.[Br-]
2 | 1.33 | CC(C)(C)C(=O)NC(CO)C(O)c1ccc([N+](=O)[O-])cc1 (stereo not drawn)
3 | 2.61 | Cc1ccnc2ccccc12
4 | 0.91 | NC(=O)CCc1ccccc1
5 | -0.41 | CC(=O)Nc1ncnc2c1ncn2C
6 | 1.85 | CC(=O)CNc1ccccc1C(=O)O
7 | 0.93 | COc1cccc(N)c1
8 | 2.15 | N#CC(C#N)=NNc1ccc(C(=O)CCl)cc1
9 | 1.49 | ON=C1C=CC(=NO)C=C1

More lines, now with the values behind:

Row | Compound | logP
10 | O=C(CN1CCCCC1)Nc1ccccc1Br | 2.94
11 | CC1=C(N2CC2)C(=O)C(Cl)=C(N2CC2)C1=O | 1.2
12 | CCC(C)(C)C | 3.82
13 | O=C(O)Cc1cccc(Cl)c1 | 2.09
14 | CCOC(=O)CNC(=O)CNC(=O)CCCCSc1ncnc2nc[nH]c12 | 0.5
15 | N#Cc1cccc2cccnc12 | 1.39
16 | CCOC(OCC)OCC | 1.2
17 | CC(=O)N[C@@H](C)C(=O)NCC(=O)N[C@@H](Cc1ccccc1)C(N)=O (Ac-Ala-Gly-Phe-NH2) | -0.71
18 | CC(C)C(C(=O)OC(C#N)c1cccc(Oc2ccccc2)c1)c1ccc(Cl)cc1 (stereo not drawn) | 6.2
19 | CC(=O)N[C@@H](C)C(=O)N[C@@H](Cc1ccc(O)cc1)C(=O)N[C@@H](CC(C)C)C(N)=O (Ac-Ala-Tyr-Leu-NH2) | -0.04
20 | NCCCCCc1ccccn1 | 1.32
21 | NS(=O)(=O)c1ccc2c(c1)S(=O)(=O)NC=N2 | -0.7
22 | Cc1ccc2c(c1)nc(N)n2C | 1.47
23 | O=C(Cn1cnc([N+](=O)[O-])n1)NCCO | -1.59
